Data reported in US4585773A, “Isoindolinyl-alkyl-piperazines” (Bristol-Myers Company, priority 1984, dated 1986).
Read-outs that look alike come from different tables or passages of the source. Values belong to the compound of their own block, whether it stands above or below them.

Experiments:
[1] = system: α blocking activity (phenylephrine); assay: in vivo α blocking activity, phenylephrine (PE) as α-agonist (Table III); parameters: species or system rat; ED50: unit not given beside the values; details: for Average Dose Shift: ED50 after/before drug, PE; for in vivo α blocking activity (in words): conclusion from Table III; for ED50: iv
Method: In this example the compounds of Examples I (modified), II, III, V, VI, VII, VIII, IX and XI were tested in rats for in vivo α blocking activity according to methodology described at page 312 of Deitchman, et al., Journal of Pharmacological Methods, 3, 311-321 (1980). In this test phenylephrine (PE below) or norepinephrine (NE below) was administered as an α-agonist to the rats before and after dosing with the test drug and the average interpolated dose or PE/NE effecting a 50 mm Hg increase in mean arterial blood pressure was determined. Table III below records the results. In such Table, ED50 stands for such average interpolated dose and Average Dose Shift stands for the average ratio of ED50 after drug administration to ED50 before drug administration. The compound of Example I was tested as its monochloride 2-propanolate hydrate, i.e. as C22 H27 ClN4 O4 S.HCl 0.2(CH3)2 CHOH.0.15H2 O in Tests 1-5 and as the 3/4 mole hydrochloride, i.e. C22 H27 ClN 4 O4 S.3/4HCL in Tests 2a and 3a. The route was intravenous except in the case of the runs of Test Nos. 2a, 3, 3a, 26-29 the route was oral.

α1 = assay: in vitro α1 binding, [3H]WB-4101 (Table IV); details: for IC50: [3H]WB-4101, brain tissue, 50 mM Hepes.KOH, pH 7.4, read-out: α1 Binding IC50
Method: (§1) In this Example the compounds of Examples I-XI were tested in vitro for α1 and α2 binding. The compound of Example I was tested as its monochloride 2-propanolate hydrate, i.e. as C22 […] CLN4 O4 S .HCl.0.2(CH3)2 CHOH 0.15H2 O. In the testing specific brain tissues were prepared as sources of binding sites. Aliquots of the washed members are incubated with a low concentration of […]. After incubation at suitable temperature, the reaction mixture is treated to separate the membrane-bound radioligand Radioactivity is measured. Linear regression analysis of the probit value for the percent of binding occurring in the presence of varying concentrations of the compound of interest plotted against the concentration of the compound yields concentrations which inhibit 50% specific binding, the IC50. The assay buffer is 50 mM Hepes.KOH, pH 7.4. The ligand is [^3 H]WB-4101 from New England Nuclear for α1 and [^3 H]Clonidine from New England Nuclear for α2. The results are considered against phentolamine methanesulfonate (Reference) which is considered a good α-binder.

[2] = conscious rat diuretic screen of Lipschitz (Table I); type: in vivo, rat (female Sprague Dawley; male Okamoto-Aoki); details: for response vs control in vivo at 0.3 mg/kg / response vs control in vivo at 3 mg/kg / response vs control in vivo at 30 mg/kg / response vs control in vivo at 10 mg/kg: Rattus norvegicus, po
Method: With respect to diuretic utility there can be mentioned the conscious rat diuretic screen of Lipschitz, et al. (J. Pharmacol. Exp. Therap. 79, 97-110 (1943)). In this test, dose response assays of diuretic, natruiretic and kaliuretic activity are determined by oral administration of the test substance. The compounds synthesized in Examples I-XI were tested for diuretic […]. The compound of Example I was tested as its monohydrochloride 2-propanolate hydrate, i.e. as C22 […] ClN4 O4 S.HCl. 0.2(CH3)2 CHOH.0.15H2 O. Testing was carried out by the diuretic screen of Lipschitz, et al. described previously. In Table I below Volume Ratio is the ratio of total volume excreted for the test comuound compared to the total volume excreted for the control, Na^+ Ratio is the Na^+ excreted for the test compound compared to the Na^+ excreted for the control, K^+ Ratio is the K^+ excreted for the test compound compared to the K^+ excreted for the control. Female Sprague Dawley rats were used in Test Nos. 1, 2, 6, 7, 11-29. Male Okamoto-Aoki rats were used in Test Nos. 3-5 and 8-10 and testing for antihypertensive activity was carried out simultaneously on the Test Nos. 3-5 rats. In some instances, compounds were retested at the same dose level.

α2 = assay: in vitro α2 binding, [3H]Clonidine (Table IV); details: for IC50: [3H]Clonidine, brain tissue, 50 mM Hepes.KOH, pH 7.4, read-out: α2 Binding IC50
Method: as §1

[3] = system: Spontaneously Hypertensive rat; assay: antihypertensive activity, Spontaneously Hypertensive Rat (Table II); type: in vivo; details: for antihypertensive effect (in words): conclusion from Table II (SHR, and DOCA for Examples I-IV)
Method: Spontaneously Hypertensive Rat Male rats weighing 300-400 g, previously conditioned to the procedure, are prewarmed in a heating chamber (30° C.) for 10-20 min. and subsequently restrained in a wire holder at that temperature. Systolic blood pressure and heart rate are measured by the tailcuff technique using a pneumatic pulse transducer and a biotachometer before, and 2, 4, and 24 hours after oral administration of vehicle (0.25% Methocel in water) or test compounds suspended in vehicle at a dose volume equivalent to 5 ml/kg. Blood pressure and heart rate data are reported as changes from zero-hour measurements with vehicle control groups run periodically to confirm that the vehicle has no effect. Testing was carried out on the compounds of Examples I-XII for antihypertensive activity. In the case of all the compounds testing was carried out on the Spontaneously Hypertensive rat as described hereinbefore. In the case of the compounds of Examples I-IV testing was also carried out on the DOCA-salt Hypertensive Rat. The compound of Example I was tested as its monochloride 2-propanolate hydrate, i.e. as C22 […] ClN4 O4 S.HCl.0.2(CH3)2 CHOH.0.15H2 O in Tests 1-5; and as the 3/4 mole hydrochloride, i.e. C22 […] ClN4 O4 S: 3/4 HCl in Tests 3a, 4a, 5a-5d. Test results are set forth in Table II below wherein SHR stands for Spontaneously Hypertensive rat, DOCA stands for DOCA-salt Hypertensive Rat, ΔBP stands for the change in systolic blood pressure in mm Hg, ΔHR stands for the change in mean heart rate in beats per minute and the times set forth are the times after dosing. A peak change in ΔBP of more than 20 is considered as indicating activity.

[4] = 3 mg/kg oral, male Okamoto-Aoki rats
[5] = 30 mg/kg oral, female Sprague Dawley rats
[6] = 30 mg/kg oral, male Okamoto-Aoki rats
[7] = 3 mg/kg oral, male Okamoto-Aoki rats, read-out: K+ Ratio
[8] = 3 mg/kg oral, male Okamoto-Aoki rats, read-out: Na+ Ratio
[9] = 3 mg/kg oral, male Okamoto-Aoki rats, read-out: Volume Ratio
[10] = 30 mg/kg oral, female Sprague Dawley rats, read-out: K+ Ratio
[11] = 30 mg/kg oral, female Sprague Dawley rats, read-out: Na+ Ratio
[12] = 30 mg/kg oral, female Sprague Dawley rats, read-out: Volume Ratio
[13] = 30 mg/kg oral, male Okamoto-Aoki rats, read-out: K+ Ratio
[14] = 30 mg/kg oral, male Okamoto-Aoki rats, read-out: Na+ Ratio
[15] = 30 mg/kg oral, male Okamoto-Aoki rats, read-out: Volume Ratio
[16] = SHR, 3.0 mg/kg oral, as 3/4 mole hydrochloride
[17] = SHR, 30 mg/kg oral, as 3/4 mole hydrochloride
[18] = SHR, 3.0 to 30 mg/kg body weight

IC50 (α1): 1.48 nM | α2 binding activity (in words) (α2): α2 binding activity | IC50 (α2): 555 nM
Structure (SMILES): COc1ccccc1N1CCN(CCCN2Cc3cc(Cl)c(S(N)(=O)=O)cc3C2=O)CC1 [Example I, 6-chloro-2,3-dihydro-2-[3-[4-(2-methoxyphenyl)-1-piperazinyl]propyl]-3-oxo-1H-isoindole-5-sulfonamide]
Average Dose Shift ([1]; dose 30, oral): 33 ± 11 | in vivo α blocking activity (in words) [1]: active as in vivo α blockers | ED50 [1]: 161.8 | α1 binding activity (in words) (α1; listed as MJ 15037): demonstrates activity in binding both α1 and α2 sites | Urinary Na/K (Test Compound) ([2]; 0.3 mg/kg oral, male Okamoto-Aoki rats): 0.81 | Urinary Na/K (Test Compound) ([2]; 3 mg/kg oral, female Sprague Dawley rats): 2.55 | Urinary Na/K (Test Compound) [2, 4]: 1.14 | Urinary Na/K (Test Compound) [2, 5]: 2.98 | Urinary Na/K (Test Compound) [2, 6]: 1.56 | natriuretic response (in words) ([2]; 3.0 to 30 mg/kg body weight): dose-dependent natriuretic response | response vs control in vivo at 0.3 mg/kg ([2]; 0.3 mg/kg oral, male Okamoto-Aoki rats, read-out: K+ Ratio): 78% | response vs control in vivo at 0.3 mg/kg ([2]; 0.3 mg/kg oral, male Okamoto-Aoki rats, read-out: Na+ Ratio): 96% | response vs control in vivo at 0.3 mg/kg ([2]; 0.3 mg/kg oral, male Okamoto-Aoki rats, read-out: Volume Ratio): 82% | response vs control in vivo at 3 mg/kg ([2]; 3 mg/kg oral, female Sprague Dawley rats, read-out: K+ Ratio): 100% | response vs control in vivo at 3 mg/kg ([2]; 3 mg/kg oral, female Sprague Dawley rats, read-out: Na+ Ratio): 108% | response vs control in vivo at 3 mg/kg ([2]; 3 mg/kg oral, female Sprague Dawley rats, read-out: Volume Ratio): 93% | response vs control in vivo at 3 mg/kg [2, 7]: 103% | response vs control in vivo at 3 mg/kg [2, 8]: 168% | response vs control in vivo at 3 mg/kg [2, 9]: 204% | response vs control in vivo at 30 mg/kg [2, 10]: 106% | response vs control in vivo at 30 mg/kg [2, 11]: 136% | response vs control in vivo at 30 mg/kg [2, 12]: 98% | response vs control in vivo at 30 mg/kg [2, 13]: 117% | response vs control in vivo at 30 mg/kg [2, 14]: 261% | response vs control in vivo at 30 mg/kg [2, 15]: 251% | α2 binding activity (in words) (α2; listed as MJ 15037): demonstrates activity in binding both α1 and α2 sites | ΔBP 4 hours ([3]; SHR, 0.3 mg/kg oral): -18 ± 6 mm Hg | ΔHR 4 hours ([3]; SHR, 0.3 mg/kg oral): 11 ± 3 beats per minute | ΔBP 4 hours ([3]; SHR, 3.0 mg/kg oral): -43 ± 7 mm Hg | ΔHR 4 hours ([3]; SHR, 3.0 mg/kg oral): 10 ± 15 beats per minute | ΔBP 2 hours [3, 16]: -23 ± 8 mm Hg | ΔBP 4 hours [3, 16]: -10 ± 5 mm Hg | ΔHR 2 hours [3, 16]: 8 ± 10 beats per minute | ΔHR 4 hours [3, 16]: 14 ± 18 beats per minute | ΔBP 2 hours ([3]; SHR, 30 mg/kg oral): -84 ± 10 mm Hg | ΔHR 2 hours ([3]; SHR, 30 mg/kg oral): 16 ± 15 beats per minute | ΔBP 2 hours [3, 17]: -97 ± 10 mm Hg | ΔBP 4 hours [3, 17]: -52 ± 13 mm Hg | ΔHR 2 hours [3, 17]: 16 ± 8 beats per minute | ΔHR 4 hours [3, 17]: 2 ± 9 beats per minute | systolic blood pressure / antihypertensive activity (in words) [3, 18]: dose-dependent decrease in systolic blood pressure | time at which antihypertensive effect seen [3, 18]: about two | antihypertensive effect (in words) [3]: good antihypertensive effect without significantly affecting heart rate

IC50 (α1): 23.4 nM | α2 binding activity (in words) (α2): α2 binding activity | IC50 (α2): 806 nM
Structure (SMILES): COc1ccccc1N1CCN(CCN2Cc3cc(Cl)c(S(N)(=O)=O)cc3C2=O)CC1 [Example III, 6-Chloro-2,3-dihydro-2-[2-[4-(2-methoxyphenyl)-1-piperazinyl]ethyl]-3-oxo-1H-isoindole-5-sulfonamide]
Average Dose Shift ([1]; dose 10, intravenous): dose too high | in vivo α blocking activity (in words) [1]: active as in vivo α blockers | ED50 [1]: 41.0 | Urinary Na/K (Test Compound) [2, 4]: 6.1 | Urinary Na/K (Test Compound) ([2]; 10 mg/kg oral, male Okamoto-Aoki rats): 6.7 | Urinary Na/K (Test Compound) [2, 5]: 3.44 | Urinary Na/K (Test Compound) [2, 6]: 6.7 | response vs control in vivo at 3 mg/kg [2, 7]: 121% | response vs control in vivo at 3 mg/kg [2, 8]: 113% | response vs control in vivo at 3 mg/kg [2, 9]: 122% | response vs control in vivo at 10 mg/kg ([2]; 10 mg/kg oral, male Okamoto-Aoki rats, read-out: K+ Ratio): 115% | response vs control in vivo at 10 mg/kg ([2]; 10 mg/kg oral, male Okamoto-Aoki rats, read-out: Na+ Ratio): 116% | response vs control in vivo at 10 mg/kg ([2]; 10 mg/kg oral, male Okamoto-Aoki rats, read-out: Volume Ratio): 126% | response vs control in vivo at 30 mg/kg [2, 10]: 116% | response vs control in vivo at 30 mg/kg [2, 11]: 134% | response vs control in vivo at 30 mg/kg [2, 12]: 116% | response vs control in vivo at 30 mg/kg [2, 13]: 130% | response vs control in vivo at 30 mg/kg [2, 14]: 135% | response vs control in vivo at 30 mg/kg [2, 15]: 163% | ΔBP 2 hours ([3]; SHR, 30 mg/kg oral): -47 ± 14 mm Hg | ΔBP 4 hours ([3]; SHR, 30 mg/kg oral): -69 ± 20 mm Hg | ΔHR 2 hours ([3]; SHR, 30 mg/kg oral): 10 ± 3 beats per minute | ΔHR 4 hours ([3]; SHR, 30 mg/kg oral): 10 ± 10 beats per minute | antihypertensive effect (in words) [3]: good antihypertensive effect without significantly affecting heart rate
